Results on six compounds are retold here after patent US9598362B2, “Benzidine derivative, method for preparing same, and pharmaceutical composition containing benzidine derivative for treating liver disease caused by hepatitis C virus” (priority 2013, dated 2017).

Like-named read-outs stand apart in the source and are kept apart here.

One experiment concerns HCV (JFH-5aFlucm4). The experiment is described as follows: Evaluation of anti-HCV activity 1: huh7.5.1 cells inoculated with HCV carrying renilla luciferase reporter. It counts as cell-based. Conditions: Hepatitis C virus. As to the method:
To evaluate the anti-HCV activity of the compound represented by formula 1 of the present invention, the following experiment was performed.
The hepatoma cell line huh7.5.1 was distributed in a 12-well cell culture plate at the density of 50,000 cells/well. The cells were cultured in DMEM (Dulbecco's Modified Eagle's Medium 12800-017, GIBCO Co.) supplemented with 10% (v/v) FBS (Fetal Bovine Serum SH30406.02, Hyclone Co.) and 1% (v/v) antibiotics (penicillin/streptomycin solution SV30010, Hyclone Co.) in a 37° C. 6.0% CO2 incubator (CO2 Incubator 311, Forma Scientific Co, Lnc. USA) for 24 hours to lead cell attachment on the plate. Then, the cells were inoculated with HCV (JFH-5aFlucm4, PLoS One. 2011; 6(8):e228808.) having renilla luciferase gene as a reporter for 3 hours. Upon completion of the virus inoculation, the cell culture medium was replaced with the medium containing the compounds prepared in Examples 1˜24 at the concentration of 1 μM each. The cells were cultured in a 37° C. 6.0% CO2 incubator (CO2 Incubator 311, Forma Scientific Co, Lnc. USA) for 3 days. Three days after the infection, the cell culture medium was collected to measure the cytotoxicity in the following Experimental Example 3. The cells attached on the plate were washed with PBS (phosphate buffered saline) and then lysed by treating 100 μl of 1× passive lysis buffer (Promega, E1941). The cell lysate (10 μl) was added to renilla luciferase assay reagent (50 μl) in renilla luciferase assay system (Promega, E2820), followed by measurement of luminescence for 10 seconds using the luciferase measure program with Luminometer (GLOMAX 20/20 Luminometer, Promega). At this time, the measurement of luminescence was performed in triplicate with the groups treated with the compounds of Examples 1˜24 and the non-treated control group. The mean value was calculated and compared. The luminescence of each compound over the concentration was converted into EC50 (half maximal effective concentration) by using sigma plot program, and the results are shown in Table 2.
(In a reporter assay the amount or activity of a reporter protein is the signal.)

The test system of another experiment is HCV replicon NK/R2AN. As to the kind of experiment: Evaluation of anti-HCV activity 2: inhibition of HCV replication, huh7.5.1 cells with replicon NK/R2AN, renilla luciferase. It counts as cell-based. Particulars: for EC50: Hepatitis C virus; for EC50 (in words): duplicated HCV treated with compound. The procedure: To evaluate the anti-HCV activity, that is the activity to inhibit HCV replication, of the compound represented by formula 1 of the present invention, the following experiment was performed.
The hepatoma cell line huh7.5.1 having NK/R2AN, the replicon with which the replication and translation of HCV could be measured, was distributed in a 12-well cell culture plate at the density of 50,000 cells/well. The cells were cultured in DMEM (Dulbecco's Modified Eagle's Medium 12800-017, GIBCO Co.) supplemented with 10% (v/v) FBS (Fetal Bovine Serum SH30406.02, Hyclone Co.), 1% (v/v) antibiotics (penicillin/streptomycin solution SV30010, Hyclone Co.), and G418 (600 μg/mL, Calbiochem) in a 37° C. 6.0% CO2 incubator (CO2 Incubator 311, Forma Scientific Co, Lnc. USA) for 24 hours to lead cell attachment on the plate. Then, the cells were inoculated with HCV having renilla luciferase gene as a reporter for 3 hours. Upon completion of the virus inoculation, the cell culture medium was replaced with the medium containing the compounds prepared in Examples 1˜24 were added to the culture medium at the concentrations of 40 pM˜1 μM each. The cells were cultured in a 37° C. 6.0% CO2 incubator (CO2 Incubator 311, Forma Scientific Co, Lnc. USA) for 3 days. Three days after the infection, the cell culture medium was collected to measure the cytotoxicity in the following Experimental Example 3. The cells attached on the plate were washed with PBS (phosphate buffered saline) and then lysed by treating 100 μl of 1× passive lysis buffer (Promega, E1941). The cell lysate (10 μl) was added to renilla luciferase assay reagent (50 μl) in renilla luciferase assay system (Promega, E2820), followed by measurement of luminescence for 10 seconds using the luciferase measure program with Luminometer (GLOMAX 20/20 Luminometer, Promega). At this time, the measurement of luminescence was performed in triplicate with the groups treated with the compounds of Examples 1˜24 and the non-treated control group. The mean value was calculated and compared. The luminescence of each compound over the concentration was converted into EC50 (half maximal effective concentration) by using sigma plot program, and the results are shown in Table 3. At this time, when EC50 was under 100 pM, it was marked as A; when EC50 was in the range of 100 pM 1 nM, it was marked as B; when EC50 was in the range of 1 nM˜100 nM, it was marked as C; and when EC50 was over 100 nM, it was marked as D. The results are shown in Table 3.
Background: Replicon systems follow genome replication, usually without infectious particles.

[1] abbreviates: Huh-7.5.1, 72 h, read-out: EC50 grade.
Where [2] appears, read: Huh-7.5.1, replicon huh7.5.1 cells, Table 3, read-out: EC50.

By EC50 is commonly meant the concentration at which the effect is half-maximal. Turning to `COC(=O)N[C@@H](C(=O)N1CCC[C@H]1C(=O)Nc1ccc(-c2ccc(NC(=O)[C@@H]3CCCN3C(=O)[C@H](NC(=O)OC)c3ccccc3)cc2C)c(C)c1)c1ccccc1` [Example 3, dimethyl((1R,1′R)-((2S,2′S)-2,2′-(((2,2′-dimethyl-[1,1′-biphenyl]-4,4′-diyl)bis(azandiyl))bis(carbonyl))bis(pyrrolidine-2,1-diyl))bis(2-oxo-1-phenylethane-2,1-diyl))dicarbamate], the EC50 in the experiment with HCV (JFH-5aFlucm4) (Huh-7.5.1) is < 1 nM; in the experiment with HCV (JFH-5aFlucm4) (setting [1]) it was < 1 nM; in the experiment with HCV replicon NK/R2AN (setting [1]) it was < 0.1 nM; with HCV replicon NK/R2AN (setting [2]), < 0.1 nM. In the experiment with HCV replicon NK/R2AN, the “EC50 (in words)” value is “significantly low”.
As to `COC(=O)N[C@@H](C(=O)N1CCC[C@]1(C)C(=O)Nc1ccc(-c2ccc(NC(=O)[C@@]3(C)CCCN3C(=O)[C@H](NC(=O)OC)c3ccccc3)cc2)cc1)c1ccccc1` [Example 12, dimethyl((1R,1′R)-((2S,2′S)-2,2′-(([1,1′-biphenyl]-4,4′-diylbis(azandiyl))bis(carbonyl))bis(2-methylpyrrolidine-2,1-diyl))bis(2-oxo-1-phenylethane-2,1-diyl))dicarbamate], the EC50 with HCV (JFH-5aFlucm4) (setting [1]) was > 100 nM; in the experiment with HCV replicon NK/R2AN (setting [1]) it was 1 to 100 nM.
For `COC(=O)N[C@@H](C(=O)N1CCC[C@H]1C(=O)Nc1ccc2c(c1)Cc1cc(NC(=O)[C@@H]3CCCN3C(=O)[C@H](NC(=O)OC)c3ccccc3)ccc1-2)c1ccccc1` [Example 4, dimethyl((1R,1′R)-((2S,2′S)-2,2′-(((9H-fluorene-2,7-diyl)bis(azandiyl))bis(carbonyl))bis(pyrrolidine-2,1-diyl))bis(2-oxo-1-phenylethane-2,1-diyl))dicarbamate], the half-maximal effective concentration (EC50) in the experiment with HCV (JFH-5aFlucm4) (setting [1]) was 1 to 100 nM; with HCV replicon NK/R2AN (Huh-7.5.1), < 0.1 nM; with HCV replicon NK/R2AN (setting [1]), < 0.1 nM. In addition, the “EC50 (in words)” value with HCV replicon NK/R2AN is reported as “significantly low”.
For `COC(=O)N[C@@H](C(=O)N1CCC[C@H]1C(=O)Nc1ccc(-c2ccc(NC(=O)[C@@H]3CCCN3C(=O)[C@H](NC(=O)OC)c3ccccc3)cc2Br)c(Br)c1)c1ccccc1` [Example 7, dimethyl((1R,1′R)-((2S,2′S)-2,2′-(((2,2′-dibromo-[1,1′-biphenyl]-4,4′-diyl)bis(azandiyl))bis(carbonyl))bis(pyrrolidine-2,1-diyl))bis(2-oxo-1-phenylethane-2,1-diyl))dicarbamate], the EC50 in the experiment on HCV (JFH-5aFlucm4) (Huh-7.5.1) was < 1 nM; in the experiment with HCV (JFH-5aFlucm4) (setting [1]), < 1 nM; in the experiment on HCV replicon NK/R2AN (setting [1]), < 0.1 nM; in the experiment on HCV replicon NK/R2AN (setting [2]), < 0.1 nM. In addition, in the experiment on HCV replicon NK/R2AN, the “EC50 (in words)” value is listed as “significantly low”.
On to `COC(=O)N[C@@H](C(=O)N1CCC[C@H]1C(=O)Nc1ccc(-c2ccc(NC(=O)[C@@H]3CCCN3C(=O)[C@H](NC(=O)OC)c3ccccc3)cc2C(F)(F)F)c(C(F)(F)F)c1)c1ccccc1` [Example 2, dimethyl((1R,1′R)-((2S,2′S)-2,2′-(((2,2′-bis(trifluoromethyl)-[1,1′-biphenyl]-4,4′-diyl)bis(azandiyl))bis(carbonyl))bis(pyrrolidine-2,1-diyl))bis(2-oxo-1-phenylethane-2,1-diyl))dicarbamate], for which the EC50 was < 1 nM in the experiment on HCV (JFH-5aFlucm4) (Huh-7.5.1), < 1 nM in the experiment with HCV (JFH-5aFlucm4) (setting [1]), < 0.1 nM in the experiment on HCV replicon NK/R2AN (setting [1]) and < 0.1 nM in the experiment with HCV replicon NK/R2AN (setting [2]). Also, the “EC50 (in words)” value in the experiment with HCV replicon NK/R2AN was “significantly low”.
`COC(=O)N[C@@H](C(=O)N1CSC[C@H]1C(=O)Nc1ccc(-c2ccc(NC(=O)[C@@H]3CSCN3C(=O)[C@H](NC(=O)OC)c3ccccc3)cc2)cc1)c1ccccc1` [Example 21, dimethyl(1S,1S′)-2,2′-((4R,4R)-4,4′-(biphenyl-4,4′-diylbis(azandiyl))bis(oxomethylene)bis(thiazolidine-4,3-diyl))bis(2-oxo-1-phenylethane-2,1-diyl)bicarbamate]: the concentration for a half-maximal effect (EC50) with HCV (JFH-5aFlucm4) (setting [1]) was 1 to 100 nM; in the experiment with HCV replicon NK/R2AN (Huh-7.5.1), < 0.1 nM; in the experiment with HCV replicon NK/R2AN (setting [1]) it was < 0.1 nM. In the experiment on HCV replicon NK/R2AN, the “EC50 (in words)” value is recorded as “significantly low”.
